Molecular target: PRMT5/MEP50 complex (Homo sapiens, UniProt O14744)
Assay: Chemiluminescent Assay: A PRMT5 chemiluminescent assay was used to measure the IC50 activity of PRMT5 of the compounds of Examples 1A to 7 above. Biotinylated histone peptides were synthesized and attached to 384-well plates. Compound serial dilutions were performed and added to the assay plate. Histone H4 monomethyl R3 antibody was obtained from Abcam. A master mix for each well was prepared and human PRMT5/MEP50 (expressed in HEK293 cells) diluted in assay buffer to a concentration of 5 ng/μL. The reaction was incubated and slowly rotated for 60 minutes at the point of PRMT5/MEP50 addition. The supernatant from the wells was removed and blocking buffer was added to each well and rotated for 10 minutes. The primary antibody was diluted and added to every well for 60 minutes, before it was removed and the wells washed. The horse raddish peroxidase (HRP)-coupled secondary antibody was diluted and added to each well with an incubation time of 30 minutes. The HRP chemiluminescent substrate was added to every well. The plate was read on a Flourstar Omega BMG Labtech instrument (Ortenberg, Germany) and the analysis of IC50 was performed using the Flourstar Omega BMG Labtech software.
Type: cell-based

Chain of PRMT5/MEP50 complex (O14744 whole entry): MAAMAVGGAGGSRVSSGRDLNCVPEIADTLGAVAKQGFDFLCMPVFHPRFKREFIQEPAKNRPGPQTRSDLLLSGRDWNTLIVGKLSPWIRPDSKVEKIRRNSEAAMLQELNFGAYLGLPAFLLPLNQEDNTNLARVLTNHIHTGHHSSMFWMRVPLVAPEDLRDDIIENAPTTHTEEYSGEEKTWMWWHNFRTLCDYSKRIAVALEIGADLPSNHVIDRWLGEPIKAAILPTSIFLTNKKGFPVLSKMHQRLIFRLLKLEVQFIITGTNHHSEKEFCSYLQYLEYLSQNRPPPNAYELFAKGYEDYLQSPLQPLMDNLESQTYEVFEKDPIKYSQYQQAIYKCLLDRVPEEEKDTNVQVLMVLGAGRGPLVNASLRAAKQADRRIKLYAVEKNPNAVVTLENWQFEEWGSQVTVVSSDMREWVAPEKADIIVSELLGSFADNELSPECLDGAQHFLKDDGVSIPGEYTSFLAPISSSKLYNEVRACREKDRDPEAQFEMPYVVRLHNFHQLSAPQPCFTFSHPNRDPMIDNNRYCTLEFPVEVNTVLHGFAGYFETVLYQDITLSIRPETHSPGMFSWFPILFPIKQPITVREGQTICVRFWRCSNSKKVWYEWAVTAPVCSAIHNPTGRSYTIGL
Chain of PRMT5/MEP50 complex (Q9BQA1 whole entry, further chain): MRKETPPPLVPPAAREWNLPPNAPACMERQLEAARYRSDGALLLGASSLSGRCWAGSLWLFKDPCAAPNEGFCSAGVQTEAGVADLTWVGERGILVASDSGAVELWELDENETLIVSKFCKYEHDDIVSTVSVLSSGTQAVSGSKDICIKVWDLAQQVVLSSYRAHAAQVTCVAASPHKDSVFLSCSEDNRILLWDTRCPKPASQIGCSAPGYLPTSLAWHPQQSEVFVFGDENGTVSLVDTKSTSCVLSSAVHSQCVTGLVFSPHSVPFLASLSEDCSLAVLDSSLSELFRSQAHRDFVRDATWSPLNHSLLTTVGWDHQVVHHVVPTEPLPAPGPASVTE

IC50: 75 nM
SMILES: O=C(OCC(O)CN1CCc2ccccc2C1)N1CCCC(c2ccccc2)C1 (stereo unspecified)
